Patent US6906078B2, “Method of using (H+/K+) ATPase inhibitors as antiviral agents” (Pharmacia Corporation, priority 1994, dated 2005)

Experiments:
[1] = target: HCMV protease (assemblin) (Human cytomegalovirus, UniProt P16753); test: Enzymatic assay for HCMV protease (assemblin) inhibitors, fluorogenic substrate DE2; type: biochemical; conditions: at 100 μm; 30 min preincubation at 22° C.; read-out: Assemblin Inhibition % Inhibition at 100 μm
Protocol: The enzymatic assay for assemblin inhibitors compared the rate of product appearance between a control reaction containing no inhibitor and one that contained a known concentration of a potential inhibitor. There were two phases to the enzyme reaction. The first was a period of incubation of enzyme in the presence of inhibitor, but in the absence of the substrate. This incubation allowed for the inhibitor to bind and potentially block the enzyme from hydrolyzing the substrate. The second phase was started by adding the substrate and measuring the rate of product production.
The construction also encoded six additional histidine residues at the amino terminus of the protease. These additional histidine residues provided an affinity ligand by which it was purified using nickel-nitriloacetic acid-agarose (Qiagen).
The purified protease was stored as a 1-3 mg/ml stock solution in 50 mM sodium phosphate buffer, pH 7.4; 300 mM sodium chloride; 100 mM imidazole; 50% (v/v) glycerol. This stock was diluted with assay buffer to 4.8 μg/ml. A 100 μL aliquot of this solution was used in the enzyme reaction.
A specific substrate was synthesized based on the cleavage specificity of HCMV protease at the “maturation site” of the assembly protein (F. Liu and B. Roizman, J. Viral. 65, 5149 (1991), and A. R. Welch, et al, J. Viral., 65 4091 (1991)). The assembly protein maturation site has the sequence . . . AGVVNA*SCRLATA . . . (SEQ ID NO. 1); the substrate used was dabcycl-Abu-[…]-edans (SEQ ID NO. 2) (DE2). […] However, when the two chromophores are separated because of hydrolysis of the peptide moiety by HCMV protease the edans fluorescence was no longer quenched and an increase in fluorescence was realized. DE2 was stored as a stock solution at 160 μg/ml in dimethyl sulfoxide. This was diluted 10-fold with assay buffer to give a concentration of 16 μg/ml just before use. An aliquot of 50 μL was used in the reaction.
An assay Buffer (10 mM sodium phosphate buffer, pH 7.4; 150 mM sodium acetate; 0.1% CHAPS; and 20% (v/v) glycerol) was used to dilute stock solutions of enzyme and substrate.
Inhibitors were dissolved in dimethyl sulfoxide at 16-times the final assay concentration. A 10 μL aliquot of this inhibitor solution was used in the reaction.
A 100 μL aliquot of enzyme solution (4.8 μg/ml) was mixed with 10 μL of inhibitor solution in a 96-well plate cell and incubated at 22° C. for 30 minutes. Control reactions contained 10 μL of dimethylsulfoxide instead of inhibitor solution. After the preincubation was completed, 50 μL of substrate solution was added and the fluorescence recorded every 5 minutes for a period of 30 minutes. All reactions were run in triplicate with the exception of the uninhibited control reaction which was replicated 6-fold. The change in fluorescence was recorded over time and an average rate for each set of 3 reactions was calculated. Fluorescence assays were subject to spurious various due to factors such as dust in the 96-well plate; such results were omitted from the calculation of relative rates.

(H+/K+)-ATPase = target: T1, (H+/K+)-ATPase (Canis lupus familiaris, UniProt P50996); test: Inhibition of (H+/K+)-ATPase from canine gastric mucosa (inorganic phosphate release); type: biochemical; conditions: canine gastric mucosa microsomes, pH 6.0, 30 min preincubation at 37° C.; read-out: (H+/K+)-ATPase IC50
T1 construct: The microsomes retained at the 15%-30% sucrose interface, after centrifugation at 250,000×g for sixty minutes, were used as the source of (H^+/K^+)-ATPase; from tissue; host or cells: gastric glandular mucosa of mongrel dogs (microsomal fraction, lyophilized)
Summary of the method: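 Lyophilised gastric microsomes (sucrose-gradient 15%/30% interface fraction from dog mucosa, ~25 mcg protein) preincubated with compound 30 min at 37° C in 20 mM MES-Tris pH 6.0, 5 mM MgCl2, 25 mM sucrose, then 30 min more after 4 mM Tris-ATP. Released phosphate read by molybdate/ascorbate at 870 nm; activity = K+-stimulated (20 mM KCl) minus basal.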

T1 sequence (P50996 whole entry): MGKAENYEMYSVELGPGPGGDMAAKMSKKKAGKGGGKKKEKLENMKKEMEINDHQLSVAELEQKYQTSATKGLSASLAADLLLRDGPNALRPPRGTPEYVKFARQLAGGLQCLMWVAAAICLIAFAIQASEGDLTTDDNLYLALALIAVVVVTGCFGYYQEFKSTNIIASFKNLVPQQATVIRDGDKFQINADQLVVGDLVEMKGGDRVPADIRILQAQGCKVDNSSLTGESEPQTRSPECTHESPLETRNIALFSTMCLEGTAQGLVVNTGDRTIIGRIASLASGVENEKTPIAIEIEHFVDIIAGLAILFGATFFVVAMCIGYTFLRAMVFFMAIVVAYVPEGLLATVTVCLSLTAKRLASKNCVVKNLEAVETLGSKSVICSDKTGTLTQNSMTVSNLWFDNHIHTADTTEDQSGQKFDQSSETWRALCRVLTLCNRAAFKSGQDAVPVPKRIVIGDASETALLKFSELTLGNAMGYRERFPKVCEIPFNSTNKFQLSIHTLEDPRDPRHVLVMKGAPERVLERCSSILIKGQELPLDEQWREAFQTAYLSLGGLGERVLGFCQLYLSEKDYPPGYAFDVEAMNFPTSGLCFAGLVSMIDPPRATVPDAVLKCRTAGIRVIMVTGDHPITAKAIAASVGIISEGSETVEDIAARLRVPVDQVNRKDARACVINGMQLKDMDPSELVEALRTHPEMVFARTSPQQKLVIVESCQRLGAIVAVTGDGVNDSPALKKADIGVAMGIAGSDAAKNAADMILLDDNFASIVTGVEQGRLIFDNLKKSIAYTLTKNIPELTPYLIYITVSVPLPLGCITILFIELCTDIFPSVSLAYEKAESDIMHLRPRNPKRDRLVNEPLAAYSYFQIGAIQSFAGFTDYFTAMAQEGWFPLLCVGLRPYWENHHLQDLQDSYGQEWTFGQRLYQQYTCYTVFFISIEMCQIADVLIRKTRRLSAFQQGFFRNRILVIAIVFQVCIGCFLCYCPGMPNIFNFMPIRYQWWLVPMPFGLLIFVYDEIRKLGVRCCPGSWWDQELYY
T1 sequence (P33704 whole entry partner): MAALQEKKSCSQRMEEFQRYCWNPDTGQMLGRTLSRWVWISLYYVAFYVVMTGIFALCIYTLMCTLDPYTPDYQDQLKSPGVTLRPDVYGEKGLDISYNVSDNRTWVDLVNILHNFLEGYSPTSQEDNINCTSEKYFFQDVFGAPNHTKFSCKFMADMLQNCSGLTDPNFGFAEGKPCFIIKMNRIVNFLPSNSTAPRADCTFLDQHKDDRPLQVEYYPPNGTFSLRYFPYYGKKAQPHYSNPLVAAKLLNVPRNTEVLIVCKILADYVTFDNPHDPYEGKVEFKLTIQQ
Chain of HCMV protease (assemblin) (P16753 1-256): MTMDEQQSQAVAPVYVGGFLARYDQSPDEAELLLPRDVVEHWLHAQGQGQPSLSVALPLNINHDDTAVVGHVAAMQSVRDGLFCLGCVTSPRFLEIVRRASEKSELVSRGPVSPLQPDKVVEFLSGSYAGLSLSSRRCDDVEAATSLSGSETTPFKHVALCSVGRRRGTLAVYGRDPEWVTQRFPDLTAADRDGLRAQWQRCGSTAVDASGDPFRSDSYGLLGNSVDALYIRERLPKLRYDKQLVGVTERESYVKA

SMILES | melting point [°C] | inhibition at 100 µM [1] [%] | IC50 ((H+/K+)-ATPase) [nM]
COc1ccc(N)c(C[S+]([O-])c2nc3ccccc3[nH]2)c1 (stereo not shown) [Example 20, 2-[(1H-Benzimidazol-2-ylsulfinyl)methyl]-4-methoxybenzenamine] | 152 to 153 | 60 | 1600
Cc1ccc2[nH]c([S+]([O-])Cc3ccccc3N)nc2c1 (stereo not shown) [Example 41, 2-[[(5-Methyl-1H-benzimidazol-2-yl)sulfinyl]-methyl]benzenamine] | 170 to 171 | 67 | 7900
Nc1ccccc1C[S+]([O-])c1nc2cc(Cl)ccc2[nH]1 (stereo not shown) [Example 43, 2-[[(5-Chloro-1H-benzimidazol-2-yl)sulfinyl]-methyl]benzenamine] | 165 to 166 | 74 | 12000

The remaining lines, values ahead:

melting point [°C] | inhibition at 100 µM [1] [%] | IC50 ((H+/K+)-ATPase) [nM] | SMILES
149 to 155 | 82 | 2100 | COc1ccc2[nH]c([S+]([O-])Cc3c(N)cc(C)c(OC)c3C)nc2c1 (stereo not shown) [Example 78, 2-[[(5-Methoxy-1H-benzimidazol-2-yl)sulfinyl]methyl]-4-methoxy-3,5-dimethylbenzenamine]
– | 0 | 1900 | COc1ccc2[nH]c([S+]([O-])Cc3ncc(C)c(OC)c3C)nc2c1 (stereo not shown) [omeprazole, reference compound]
– | 85 | 600 | Cc1ccc(C[S+]([O-])c2nc3ccccc3[nH]2)c(N)c1C (stereo not shown) [Example 53, 2-[(1H-Benzimidazol-2-ylsulfinyl)methyl]-5,6-dimethylbenzenamine ¼ hydrate]
